Test results published in patent US20110294876A1, “CYCLOHEXYL CARBAMATE COMPOUNDS AS ANTI-AGEING ACTIVES” (SYMRISE AG, priority 2010, published 2011).

Key:
[1] = target: isolated 20S proteasome (Homo sapiens, UniProt P28074); assay: Proteasome activity using isolated proteasome (chymotrypsin-like activity, MCA liberation); type: biochemical; parameters: unit of the concentration uncertain; settings: relative to DMSO control (0 (unit uncertain) = 100%), mean of 3 independent tests
From the text: The method used herein to investigate the proteasome stimulating activity of a substance is based on the measurement of the 20S proteasome core activity. To detect this activity, the isolated 20S proteasome reacts with an oligopeptide, which is bound to a fluorochrome. With its chymotrypsin-like proteolytic activity, the proteasome degrades the oligopeptide and liberates the fluorochrome. For this assay 4-methyl-coumaryl-amide (MCA) was used as fluorochrome. Liberation of MCA correlates linearly with the proteasome activity. MCA was detected using an excitation of 360 nm and an emission of 460 nm.
For interpretation, the measured proteasome activities/intensities of fluorescence were compared with pure MCA standards at distinct concentrations.
Two different controls were used for each assay. One “ordinary” control (C) which consisted of isolated proteasome alone, and a DMSO-control (DC). DC was necessary because all substances were diluted in DMSO. Proteasome activity was calculated relative to DMSO control (0 mM).

[2] = test system: proteasome in HaCaT cell lysate; assay: Proteasome activity using cell lysates of HaCaT cells (MCA liberation); type: biochemical, human; parameters: unit of the concentration uncertain; settings: HaCaT cellular extracts, relative to DMSO control (0 (unit uncertain) = 100%), mean of 3 independent tests
Description: To determine proteasome activity in cell lysate, human keratinocyte cell lines (HaCaT cells) were seeded out in Petri-dishes (area: 22.1 cm^2) and harvested when they reached confluence. Isolation of the pure cell lysate included cell washing, incubation and homogenization in lysis buffer (250 mM sucrose, 25 mM HEPES (4-(2-hydroxyethyl)-1-piperazineethanesulfonic acid), 10 mM MgCl2*6H2O, 1.3 mM EDTA) and final cell lysis with liquid nitrogen. Determination of proteasome activity is based on the liberation of MCA and the corresponding fluorescence like described above in example 3.1. Proteasome activity was calculated relative to DMSO control (0 mM).

[3] = test system: yeast; settings: cited from earlier work
[4] = test system: fish; settings: cited from earlier work

SMILES	Relative proteasome activity ([1]; 5 (unit uncertain))	Relative proteasome activity ([1]; 10 (unit uncertain))	Relative proteasome activity ([1]; 20 (unit uncertain))	Relative proteasome activity ([2]; 5 (unit uncertain))	Relative proteasome activity ([2]; 10 (unit uncertain))	Relative proteasome activity ([2]; 20 (unit uncertain))	Extension of lifespan [3]	Extension of lifespan [4]
CC(C)NC(=O)O[C@@H]1C[C@H](C)CC[C@H]1C(C)C [BIO1272, Isopropyl-carbamic acid (1R,2S,5R)-2-isopropyl-5-methylcyclohexyl ester]	125%	210%	250%	105%	120%	140%	–	–
Oc1ccc(C=Cc2cc(O)cc(O)c2)cc1 [Resveratrol]	–	–	–	–	–	–	70%	60%
